# Laboratory results published in patent US9695155B2, “Herbicidal substituted pyrimidinyloxy benzene compounds” (E. I. DU PONT DE NEMOURS AND COMPANY, priority 2013, dated 2017).
# Columns and labels:
# barnyardgrass = experiment: Test C flooded paddy test; type: in vivo, Echinochloa crus-galli; conditions: Flood, scale 0 to 100 (0 no effect, 100 complete control), 13 to 15 days
# Procedure, shortened: (§1)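 In-water treatment: compound dosed into 3 cm flood over soil, water level unchanged throughout. Controls run alongside; visual assessment at day 13–15.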
# ducksalad = experiment: Test C flooded paddy test; type: in vivo, Heteranthera limosa; conditions: Flood, scale 0 to 100 (0 no effect, 100 complete control), 13 to 15 days
# Procedure, shortened: as §1
# kochia = experiment: Test A preemergence; type: in vivo, Kochia scoparia
# Procedure, shortened: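 Visual injury scored 0–100 (100 = complete control) against untreated controls about 10 days after treatment in a greenhouse. Test chemicals, formulated with surfactant in non-phytotoxic solvent, were sprayed on soil preemergence or on 2-10 cm, one- to two-leaf plants postemergence.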
# [1] = 125 g ai/ha, 0 to 100 scale where 0 is no effect and 100 is complete control
# [2] = 500 g ai/ha, 0 to 100 scale, 0 no effect, 100 complete control, approx. 10 days
# [3] = 500 g ai/ha, 0 to 100 scale where 0 is no effect and 100 is complete control
# [4] = 1000 g ai/ha, 0 to 100 scale, 0 no effect, 100 complete control, approx. 10 days
# [5] = 31 g ai/ha, 0 to 100 scale where 0 is no effect and 100 is complete control, visual, approximately 10 days
Structure (SMILES),"Plant response rating, Barnyardgrass (barnyardgrass; 31 g ai/ha)","Plant response rating, Barnyardgrass (barnyardgrass; 62 g ai/ha)","Plant response rating, Barnyardgrass (barnyardgrass; 125 g ai/ha)","Plant response rating, Barnyardgrass (barnyardgrass; 250 g ai/ha)","Plant response rating, Ducksalad (ducksalad; 31 g ai/ha)","Plant response rating, Ducksalad (ducksalad; 62 g ai/ha)","Plant response rating, Ducksalad (ducksalad; 125 g ai/ha)","Plant response rating, Ducksalad (ducksalad; 250 g ai/ha)","Plant response rating, Kochia (kochia; [1])",Kochia plant response rating (kochia; [3]),further results
Clc1cnc(Oc2ccccc2-n2cc(Cl)cn2)nc1 [Compound 3],0,0,0,0,0,50,70,85,–,–,–
N#Cc1cccc(Oc2ncc(F)cn2)c1-n1cc(Br)cn1 [Compound 62],0,0,0,40,30,70,85,100,–,–,–
Clc1cnc(Oc2cccc(Br)c2-n2cc(Br)cn2)nc1 [Compound 65],0,0,0,0,0,30,85,85,–,–,–
FCc1cccc(Oc2ncc(Cl)cn2)c1-n1cc(Br)cn1 [Compound 83],–,–,–,–,–,–,–,–,100,–,Kochia plant response rating (kochia; [2]): 100
CCOc1cn(-c2c(Br)cccc2Oc2ncc(Cl)cn2)nn1 [Compound 84],–,–,–,–,–,–,–,–,100,–,Kochia plant response rating (kochia; [2]): 100
FCc1cccc(Oc2ncc(F)cn2)c1-n1cc(C(F)(F)F)cn1 [Compound 118],–,–,–,–,–,–,–,–,100,–,Kochia plant response rating (0 to 100 scale) (kochia; 31 g ai/ha): 100
FCc1cccc(Oc2ncc(Br)cn2)c1-n1cc(C(F)(F)F)cn1 [Compound 120],0,0,60,85,0,40,80,90,90,–,Kochia plant response rating (0 to 100 scale) (kochia; 31 g ai/ha): 20
Clc1cnc(Oc2cccc(Br)c2-n2cc(Br)nn2)nc1 [Compound 129],–,–,–,–,–,–,–,–,100,100,–
"FC(F)(F)Sc1cnn(-c2ccccc2Oc2ncc(Cl)cn2)c1 [Compound 132, 5-chloro-2-[2-[4-(trifluoromethylthio)-1H-pyrazol-1-yl]phenoxy]pyrimidine]",–,–,–,–,–,–,–,–,100,100,–
Cc1cnc(Oc2cccc(C#N)c2-n2cc(I)cn2)nc1 [Compound 136],–,–,–,–,–,–,–,–,90,100,–
COc1cnn(-c2c(C#N)cccc2Oc2ncc(Cl)cn2)c1 [Compound 137],–,–,–,–,–,–,–,–,90,100,–
CCCOc1cnn(-c2c(C#N)cccc2Oc2ncc(Cl)cn2)c1 [Compound 150],0,0,0,0,0,40,70,75,100,100,–
FCc1cn(-c2c(F)cccc2Oc2ncc(Cl)cn2)nn1 [Compound 154],–,–,–,–,–,–,–,–,–,–,Kochia plant response rating (kochia; [4]): 100
Fc1cccc(Oc2ncc(Cl)cn2)c1-n1cc(C2CC2)nn1 [Compound 155],–,–,–,–,–,–,–,–,–,–,Kochia plant response rating (kochia; [4]): 100
N#Cc1cnn(-c2c(Oc3ncc(Cl)cn3)cccc2C(F)F)c1 [Compound 236],0,0,0,20,0,40,80,90,–,–,–
"N#Cc1cccc(Oc2ncc(Cl)cn2)c1-n1cnc(C(F)(F)F)c1 [Compound 252, 3-[(5-chloro-2-pyrimidinyl)oxy]-2-[4-(trifluoromethyl)-1H-imidazol-1-yl]benzonitrile]",–,–,–,–,–,–,–,–,–,100,"Plant response rating, Kochia (kochia; [5]): 80; Kochia plant response rating (0 to 100 scale) (kochia; 125 g ai/ha): 100"
Fc1cccc(Oc2ncc(Cl)cn2)c1-n1cc(OCC(F)(F)F)cn1 [Compound 270],0,30,45,60,20,60,80,95,–,–,"Plant response rating, Kochia (kochia; [5]): 80; Kochia plant response rating (0 to 100 scale) (kochia; 125 g ai/ha): 100"
N#Cc1cccc(Oc2ncc(Cl)cn2)c1-n1cc(-n2ccc(C(F)(F)F)n2)cn1 [Compound 284],–,–,–,–,–,–,–,–,–,100,Kochia plant response rating (0 to 100 scale) (kochia; 125 g ai/ha): 80
